Results: the METLIN SMRT retention time set (Domingo-Almenara et al. 2019)

Experiment: gradient 5% acetonitrile 3 min, to 50% in 2 min, to 85% in 15 min, held 3 min, 100 µL/min
Settings: column: Zorbax Extend-C18 2.1 x 50 mm; eluents: water / acetonitrile, 0.1% formic acid
How it was run: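 Over 3 months, pure standards in mixtures of ~100 molecules were run by HPLC coupled to a quadrupole time-of-flight mass spectrometer in positive and negative ionization mode. The column was a Zorbax Extend-C18 (2.1 × 50 mm, 1.8 μm) at 100 μL/min, eluted with water and acetonitrile each holding 0.1% formic acid, with 40 μL dead and 900 μL dwell volumes. Retention time was determined from adduct peaks chosen by software and checked manually.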

With `Cc1nc(N2CCCC2)c2c(C(=O)Nc3cccc(F)c3)c(C)oc2n1` the RP-LC retention time was 784 s.

`O=C(NCCc1csc(-c2cccs2)n1)C1CCN(S(=O)(=O)c2ccc(F)cc2)CC1` showed an RP-LC retention time of 882 s.

Work on `COC(=O)CNC(=O)N1CCN(c2nc3ccccc3n3cccc23)CC1` yielded an RP-LC retention time of 590 s.

With `CCc1nc(NC(=O)C2CC(=O)N(c3n[nH]c4cccc(F)c34)C2)sc1C` (stereo unspecified) the RP-LC retention time was 740 s.

Work on `C/C(=C\c1csc(C)n1)[C@@H]1C[C@@H]2O[C@]2(C)CCC[C@H](C)[C@H](O)[C@@H](C)C(=O)C(C)(C)[C@@H](O)CC(=O)N1` yielded an RP-LC retention time of 707 s.

In the case of `Cc1ccccc1Cn1ccnc1C(=O)N1CCNC(=O)C1`, the RP-LC retention time is reported as 616 s.

`CCCn1ccc2sc(C)c(C(=O)NCc3ccc(Cl)cc3)c2c1=O` showed an RP-LC retention time of 985 s.

Work on `O=C(NC1CCCCC1)c1ccc2c(c1)NC(=O)C1CCCCN21` (stereo unspecified) yielded an RP-LC retention time of 807 s.

In the case of `Cc1nnc(-c2cc(NC(=O)c3cccc(Br)c3)c(C)s2)o1`, the RP-LC retention time is reported as 938 s.

In the case of `Cc1ccccc1OCC(=O)N1CCCC1c1nc(-c2cccc(Cl)c2)no1` (stereo unspecified), the RP-LC retention time is reported as 1150 s.

In the case of `Cc1ccc2c(Nc3ccc(Cl)c(F)c3)c(C(=O)N3CCSCC3)cnc2n1`, the RP-LC retention time is reported as 651 s.

With `COc1ccc(-c2csc(C)n2)cc1S(=O)(=O)N1CCN(c2ccccc2)CC1` the RP-LC retention time was 1060 s.

Molecule `CCC1(O)CCOC2(CCN(C(=O)CC3CCCC3)CC2)C1` (stereo unspecified) has an RP-LC retention time of 748 s.

In the case of `Cc1ccccc1NS(=O)(=O)c1cc2n(c1)CCCN(C)C2=O`, the RP-LC retention time is reported as 666 s.

`Nc1cc(C2CCN(C(=O)/C=C/c3ccccc3)CC2)no1` showed an RP-LC retention time of 724 s.

Molecule `CC(C)c1ccc(NC(=O)C2CCCN(C(=O)C3Sc4ccccc4NC3=O)C2)cc1` (stereo unspecified) has an RP-LC retention time of 913 s.

`COc1cc(-c2noc(Cc3nnc(-c4ccc(F)cc4)o3)n2)cc(OC)c1OC` showed an RP-LC retention time of 916 s.

In the case of `CC1CCCCN1CCCNC(=O)Cn1c(=O)c2cccn2c2ccc(F)cc21` (stereo unspecified), the RP-LC retention time is reported as 611 s.

With `O=S(=O)(Cc1ccc(F)cc1)NCCc1csc2nc(-c3cccs3)nn12` the RP-LC retention time was 822 s.

`O=C1CCCc2cc(S(=O)(=O)NCCN3CCN(c4ccccc4)CC3)ccc2N1` gave an RP-LC retention time of 621 s.

For `COc1cccc(CNC(=O)CN2C(=O)NC(c3ccc(Cl)cc3)C3=C2COC3=O)c1` (stereo unspecified), the RP-LC retention time was 764 s.

`Cn1cc(-c2ccncc2)cc1C(=O)NCc1cccc(F)c1` showed an RP-LC retention time of 630 s.

`CC1CCCN(c2ccc(NC(=O)C(C)C)c(C(=O)O)c2)C1` (stereo unspecified) gave an RP-LC retention time of 627 s.

`CCCn1ccc2sc(C)c(C(=O)NCCOC)c2c1=O` showed an RP-LC retention time of 652 s.

`C=CCSc1nc2ccccc2c2nc(C)nn12` gave an RP-LC retention time of 982 s.

`Cc1noc(C)c1S(=O)(=O)N1CCC(Cc2ccc(COc3ccncc3)cc2)CC1` gave an RP-LC retention time of 831 s.

For `CCC(=O)N1CCCCCCN(C)C(=O)[C@@H]2CCC[C@@H]21`, the RP-LC retention time was 726 s.

`O=C(Cn1ncccc1=O)N1CCN(c2ccc(-c3ccco3)nn2)CC1` showed an RP-LC retention time of 552 s.

Work on `CC(C)N1CCN(C(=O)c2ccc(-c3ccnc(N4CCCC4)n3)cc2)CC1` yielded an RP-LC retention time of 562 s.

With `Fc1cccc(-c2nc(-c3ccc4c(c3)ncn4CCN3CCCC3)no2)c1` the RP-LC retention time was 634 s.

Molecule `N#Cc1cccc(NC(=O)Cn2nc3n(c2=O)CCCC3)c1` has an RP-LC retention time of 638 s.

In the case of `Cc1cc(N2CCN(C(=O)Nc3cccc(C(F)(F)F)c3)CC2)nc(N2CCCCC2)n1`, the RP-LC retention time is reported as 789 s.

`CCSCCOC(=O)C1=C(C)NC2=C(C(=O)CCC2)C1c1ccccc1OC` (stereo unspecified) showed an RP-LC retention time of 727 s.

`CCCn1cc(CCNS(=O)(=O)c2ccc3c(c2)CCC3)c2cccnc21` showed an RP-LC retention time of 938 s.

For `CCN1C(=O)COc2cc(-c3noc(C(=O)N4CCN(c5ccccc5)CC4)n3)ccc21`, the RP-LC retention time was 1030 s.

Work on `CC(C)Cn1nc2ccc(S(=O)(=O)N3CCOCC3)cn2c1=O` yielded an RP-LC retention time of 732 s.

Molecule `CCCS(=O)(=O)c1nc2ccc(NS(=O)(=O)c3ccc4c(c3)CCCC4)cc2s1` has an RP-LC retention time of 1060 s.

In the case of `CCc1ccccc1NC(=O)Cn1c(N)nc(C)cc1=O`, the RP-LC retention time is reported as 584 s.

Molecule `CCc1nc(OCC(=O)NCc2cccc(F)c2)c2c(C)c(C)oc2n1` has an RP-LC retention time of 942 s.

Work on `CC(C)c1cc(CNc2nc(Nc3cc(C4CC4)[nH]n3)cc(N3CCN(C)CC3)n2)on1` yielded an RP-LC retention time of 647 s.

For `Cc1cc2c(=O)n(CC(=O)NCc3cccc(Cl)c3)c3cccnc3n2n1`, the RP-LC retention time was 727 s.

`COC(=O)c1cccc(NC(=O)N2CCC3(CC2)NC(=O)c2ccccc2O3)c1` gave an RP-LC retention time of 736 s.

With `Cc1nc(C(C)C)ncc1C(=O)Nc1ccc(Br)cc1F` the RP-LC retention time was 907 s.

`Cc1ccc2nc(C3CN(C(=O)COc4ccc(Cl)cc4Cl)C3)[nH]c2c1` gave an RP-LC retention time of 610 s.

In the case of `CCCCNC1(c2cc3ccccc3s2)CCCCC1`, the RP-LC retention time is reported as 831 s.

`Cn1ncc2c(N3CCSCC3)nc(C(=O)NCCc3ccc(Cl)cc3)nc21` gave an RP-LC retention time of 913 s.

Work on `CC(C)CN1C(=O)CCc2cc(NS(=O)(=O)c3ccccc3F)ccc21` yielded an RP-LC retention time of 845 s.

In the case of `CCCc1noc(-c2ccc3nnc(CC(=O)NC4CCCCC4)n3c2)n1`, the RP-LC retention time is reported as 826 s.

For `O=C(NC1CCCCCCC1)C1CCCN(S(=O)(=O)c2c[nH]c(C(=O)N3CCCC3)c2)C1` (stereo unspecified), the RP-LC retention time was 854 s.

`C=CCn1nnc(NCc2ccc(-c3ccc(Br)cc3Br)o2)n1` showed an RP-LC retention time of 1200 s.

Work on `CN(C)c1ccc(CNC(=O)c2cc3n(n2)CC(C)(C(=O)NC2CCCCCC2)N(C)C3=O)cc1` (stereo unspecified) yielded an RP-LC retention time of 649 s.

Molecule `O=C(NCc1cccnc1)c1cc(-c2ccc3c(c2)OCO3)nc2ccccc12` has an RP-LC retention time of 665 s.

For `O=C(CCc1ccccc1)Nc1cnc(-c2cccnc2)nc1`, the RP-LC retention time was 690 s.

In the case of `CCC(C)NC(=O)c1ccc(-c2cccs2)nc1` (stereo unspecified), the RP-LC retention time is reported as 816 s.

Work on `CC(C)c1ccc(NC(=O)Cn2c(=O)cc(-c3nc(C4CC4)no3)c3ccccc32)cc1` yielded an RP-LC retention time of 1120 s.

`CCOC(=O)c1c(C)[nH]c(C(=O)N2CCC(CC(=O)N3CCN(c4ccccn4)CC3)CC2)c1C` showed an RP-LC retention time of 619 s.

Work on `Cc1nc2cc(-c3noc(/C=C/c4ccccc4)n3)ccc2o1` yielded an RP-LC retention time of 1140 s.

`COCCN(Cc1ccc(Cl)cc1)Cc1cc(=O)n2cc(C)ccc2n1` gave an RP-LC retention time of 662 s.

In the case of `CCOc1ccc2c(n1)CCN(C(=O)Nc1ccccc1OCC)C2`, the RP-LC retention time is reported as 973 s.

Work on `O=C(NCCc1c[nH]c2ccccc12)C(=O)c1cn(CC(=O)N2CCOCC2)c2ccccc12` yielded an RP-LC retention time of 832 s.

Work on `CCn1cc(C)c(C(=O)O)c1CC(=O)NCc1ccc(SC)cc1` yielded an RP-LC retention time of 758 s.

Work on `COC(=O)c1c(-c2ccc(C)cc2)csc1NC(=O)C1CCN(C(C)=O)CC1` yielded an RP-LC retention time of 932 s.

`CCOc1ccc(S(=O)(=O)N2CCC(c3noc(-c4ccc(Cl)cc4)n3)CC2)cc1` showed an RP-LC retention time of 1260 s.

In the case of `COCCCNC(=O)CN1c2ccc(F)cc2-c2ccccc2S1(=O)=O`, the RP-LC retention time is reported as 756 s.

With `COc1ncc(C(=O)Nc2cc(C)ccc2C)c(C)n1` the RP-LC retention time was 748 s.

Work on `O=C(Cc1cccc(C(F)(F)F)c1)N1CCc2nc[nH]c2C1` yielded an RP-LC retention time of 612 s.

In the case of `CNC(=O)c1cc(N(C)C)nc2c(Cl)cccc12`, the RP-LC retention time is reported as 666 s.

For `CN1CCC2(CC1)N=C(c1ccc(Br)cc1)CC(c1cc(Cl)ccc1O)N2` (stereo unspecified), the RP-LC retention time was 675 s.

`Cc1ccnc(Nc2nc(C)c(C(=O)N3CCOCC3)s2)c1` showed an RP-LC retention time of 617 s.

`CCc1nc2cc(-c3noc(-c4ccccc4C)n3)ccc2o1` showed an RP-LC retention time of 1280 s.

Molecule `Cn1cc(CCNC(=O)c2cncc(Br)c2)c2cccnc21` has an RP-LC retention time of 638 s.

With `CCOC(=O)Cc1[nH]nc2ccc(F)cc12` the RP-LC retention time was 697 s.

With `Cc1nc(C)c(C(=O)N(C)C2CCc3nn(CC4CC4)c(=O)n3CC2)s1` (stereo unspecified) the RP-LC retention time was 626 s.

With `CC(C)N(Cc1ccccc1)C(=O)C1CCCN(c2ncnc3c2nc2n3CCCCC2)C1` (stereo unspecified) the RP-LC retention time was 905 s.

Work on `OC(CNCC(O)C1CCc2cc(F)ccc2O1)C1CCc2cc(F)ccc2O1` (stereo unspecified) yielded an RP-LC retention time of 744 s.

In the case of `CCc1ccccc1NC(=O)c1sc(C)nc1C`, the RP-LC retention time is reported as 778 s.

Molecule `O=C(Cn1nc(C2CC2)cc1C(=O)N1CCCC1)Nc1ccccc1Cl` has an RP-LC retention time of 815 s.

With `O=C(NCCc1ccncc1)C1CN(C(=O)c2cccs2)CC12CCCCC2` (stereo unspecified) the RP-LC retention time was 610 s.

For `CCCCN1C(=O)NC(c2ccccc2)C(c2nc(-c3ccccc3)no2)=C1C` (stereo unspecified), the RP-LC retention time was 1130 s.

`COCCOC1CN(C2CCN(C(=O)Nc3ccccc3)CC2)C12CCCCC2` (stereo unspecified) gave an RP-LC retention time of 641 s.

With `CCCNc1cc(N2CCC(CCC(=O)NCCC(C)C)CC2)ncn1` the RP-LC retention time was 693 s.

In the case of `N#Cc1ccc(Cl)cc1NC(=O)c1ccc(N2CCOCC2)nn1`, the RP-LC retention time is reported as 843 s.

`CCN1CCN(C(=O)c2ccc(-c3nnc4ccc(NC(=O)C5CC5)cn34)cc2)CC1` showed an RP-LC retention time of 587 s.

Work on `CCOCCCNC(=O)Cn1c(=O)c2cccn2c2ccccc21` yielded an RP-LC retention time of 689 s.

In the case of `CCOc1ccc(-c2nc(-c3ccc4c(c3)oc(=O)n4C(C)C)no2)cc1OCC`, the RP-LC retention time is reported as 1260 s.

In the case of `Cc1nc2c(sc3nc(-c4ccccc4)ccc32)c(=O)n1CC(=O)Nc1ccccc1C(F)(F)F`, the RP-LC retention time is reported as 1070 s.

Molecule `Cc1ccc(CNC(=O)c2nnc(-c3ccc(S(=O)(=O)N4CCCCC4)cc3)o2)o1` has an RP-LC retention time of 952 s.

`CC(C)NC(=O)c1cc2c(n(-c3ccc(C(F)(F)F)cc3)c1=O)CCCC2=O` gave an RP-LC retention time of 883 s.

`O=C1C(NS(=O)(=O)c2ccc(C(F)(F)F)cc2)CCN1c1ccc(F)cc1` (stereo unspecified) showed an RP-LC retention time of 964 s.

With `Cc1cc(C)cc(NC(=O)N2CCN(c3cc(-c4cccnc4)[nH]n3)CC2)c1` the RP-LC retention time was 644 s.

Molecule `CCn1cnc(S(=O)(=O)N2CCC(C(=O)NCC(C)c3ccccc3)CC2)c1` (stereo unspecified) has an RP-LC retention time of 732 s.
